Among the data in patent US10556900B2, “TrkA kinase inhibitors, compositions and methods thereof” (Merck Sharp & Dohme Corp., priority 2015, dated 2020) are IC50 values, retold here.

A word on the IC50: it is the concentration that gives 50% inhibition.

In the assay the target is human TrkA receptor (Homo sapiens (Human), UniProt P04629). Nature of the assay: TrkA functional activity, DiscoverX PathHunter assay (NGF-stimulated U2OS cells). The assay is classed as cell-based. Particulars: U2OS cells expressing human TrkA-Prolink, Shc1-EA and p75NTR; compound 1 h, then NGF (~80% of maximal response) 3 h; luminescence. As for the experimental part: TrkA functional activity was measured using a DiscoverX PathHunter assay. In this assay, U2OS cells express the human TrkA receptor as a fusion with the weakly complementing fragment of B-galactosidase, which DiscoverX calls “Prolink (PK)”; additionally, Shc1 is fused with a larger fragment, which is called “Enzyme Acceptor (EA)”. Activation of the TrkA receptor, upon NGF addition, results in the kinase domain being phosphorylated, resulting in subsequent recruitment of Shc1-EA protein. That recruitment results in an active B-galactosidase enzyme that is detected by addition of a chemiluminescent substrate. The human p75^NTR protein was also expressed as a co-receptor for NGF.
Sequence of human TrkA receptor (P04629 33-796): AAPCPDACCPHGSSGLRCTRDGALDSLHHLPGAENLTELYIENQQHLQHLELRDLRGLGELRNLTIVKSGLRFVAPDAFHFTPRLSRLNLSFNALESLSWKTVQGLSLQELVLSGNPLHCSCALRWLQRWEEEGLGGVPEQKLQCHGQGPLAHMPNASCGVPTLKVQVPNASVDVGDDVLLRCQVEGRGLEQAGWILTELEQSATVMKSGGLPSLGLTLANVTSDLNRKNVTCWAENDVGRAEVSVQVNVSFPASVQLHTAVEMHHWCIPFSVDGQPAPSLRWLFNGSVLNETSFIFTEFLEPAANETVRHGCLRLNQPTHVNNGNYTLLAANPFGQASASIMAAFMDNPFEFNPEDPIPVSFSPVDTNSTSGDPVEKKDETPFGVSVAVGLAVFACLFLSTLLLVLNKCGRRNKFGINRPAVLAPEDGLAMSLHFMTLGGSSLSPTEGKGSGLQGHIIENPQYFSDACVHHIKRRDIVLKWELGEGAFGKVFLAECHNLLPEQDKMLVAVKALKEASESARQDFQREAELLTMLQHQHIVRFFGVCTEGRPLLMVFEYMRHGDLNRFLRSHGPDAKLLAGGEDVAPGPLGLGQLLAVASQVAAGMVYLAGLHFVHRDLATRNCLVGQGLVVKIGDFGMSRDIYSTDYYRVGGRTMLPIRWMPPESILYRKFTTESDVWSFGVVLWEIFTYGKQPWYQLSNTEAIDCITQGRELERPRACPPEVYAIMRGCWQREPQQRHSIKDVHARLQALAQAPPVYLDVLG
All reagents were purchased from DiscoverX, except for the receptor agonists (NGF, BDNF, NT3) which were purchased from Peprotech. Cells were expanded and frozen into cryovials, and stored in the vapor phase of liquid nitrogen, and thawed immediately before use. Thawed cells were added to a 384-well plate at 7500 cells/well, and allowed to incubate overnight. Compound at various concentrations was added the following morning and allowed to incubate on cells for 1 h. Then, NGF was added at a concentration sufficient to elicit ˜80% of a maximal response and allowed to incubate for 3 h at ambient temperature. DiscoverX PathHunter detection reagent was then added and the plate was further incubated for 1 h in the dark. The plate was then read via luminescence on the Perkin Elmer Envision.
The compound `Cn1ccc(-c2cc(C(=O)Nc3c(-c4ccccc4)ccc4c(C(C)(C)O)cnn34)c(F)cc2C(F)(F)F)n1` [Compound 36, 2-Fluoro-N-(3-(2-hydroxypropan-2-yl)-6-phenylpyrazolo[1,5-a]pyridin-7-yl)-5-(1-methyl-1H-pyrazol-3-yl)-4-(trifluoromethyl)benzamide] registered a half-maximal inhibitory concentration (IC50) of 0.4 nM. This lies in the sub-nanomolar range.
In the case of `Cn1ccc(-c2cc(C(=O)Nc3c(-c4ccccc4)ccc4c(C(C)(C)O)cnn34)ccc2C(F)(F)F)n1` [Compound 37, N-[3-(1-hydroxy-1-methylethyl)-6-phenylpyrazolo[1,5-a]pyridin-7-yl]-3-(1-methyl-1H-pyrazol-3-yl)-4-(trifluoromethyl)benzamide], the IC50 was found to be 4.5 nM.
Take `CC(C)(O)c1cnn2c(NC(=O)c3cc(-c4ncccn4)c(C(F)(F)F)cc3F)c(-c3ccccc3)ccc12` [Compound 38, 2-fluoro-N-[3-(1-hydroxy-1-methylethyl)-6-phenylpyrazolo[1,5-a]pyridin-7-yl]-5-pyrimidin-2-yl-4-(trifluoromethyl)benzamide]: the IC50 is 1.8 nM.
The result for `Cn1ccc(-c2cc(C(=O)Nc3c(-c4ccccc4)ccc4c(CO)cnn34)c(F)cc2C(F)(F)F)n1` [Compound 39, 2-fluoro-N-[3-(hydroxymethyl)-6-phenylpyrazolo[1,5-a]pyridin-7-yl]-5-(1-methyl-1H-pyrazol-3-yl)-4-(trifluoromethyl)benzamide] reads 0.33 nM.
The compound `Cn1ccc(-c2cc(C(=O)Nc3c(-c4ccccc4)ccc4c(CO)cnn34)ccc2C(F)(F)F)n1` [Compound 40, N-[3-(hydroxymethyl)-6-phenylpyrazolo[1,5-a]pyridin-7-yl]-3-(1-methyl-1H-pyrazol-3-yl)-4-(trifluoromethyl)benzamide] registered an IC50 of 1.4 nM.
`O=C(Nc1c(-c2ccccc2)ccc2c(CO)cnn12)c1cc(-c2ncccn2)c(C(F)(F)F)cc1F` [Compound 41, 2-fluoro-N-[3-(hydroxymethyl)-6-phenylpyrazolo[1,5-a]pyridin-7-yl]-5-pyrimidin-2-yl-4-(trifluoromethyl)benzamide]: the IC50 was found to be 2.1 nM. Against the preceding compound, the IC50 is about 1.5-fold higher.
`Cn1ccc(-c2cc(C(=O)Nc3c(-c4ccccc4)ccc4cc(C(C)(C)O)[nH]c34)ccc2C(F)(F)F)n1` [Compound 42, N-(2-(2-Hydroxypropan-2-yl)-6-phenyl-1H-indol-7-yl)-3-(1-methyl-1H-pyrazol-3-yl)-4-(trifluoromethyl)benzamide] returned an IC50 of 0.66 nM.
The result for `CC(=O)c1c[nH]c2c(NC(=O)c3ccc(C(F)(F)F)c(-c4ccn(C)n4)c3)c(-c3ccccc3)ccc12` [Compound 43, N-(3-Acetyl-6-phenyl-1H-indol-7-yl)-3-(1-methyl-1H-pyrazol-3-yl)-4-(trifluoromethyl)benzamide] reads 5 nM; that for `CC(C)(O)c1cc2cc(-c3ccccc3)c(NC(=O)c3cc(-c4ncccn4)c(C(F)(F)F)cc3F)cc2[nH]1` [Compound 44, 2-Fluoro-N-(2-(2-hydroxypropan-2-yl)-5-phenyl-1H-indol-6-yl)-5-(pyrimidin-2-yl)-4-(trifluoromethyl)benzamide], 96 nM.
The result for `CC(C)(O)c1n[nH]c2c(NC(=O)c3cc(-c4ncccn4)c(C(F)(F)F)cc3F)c(-c3ccccc3)ccc12` [Compound 45, 2-Fluoro-N-(3-(2-hydroxypropan-2-yl)-6-phenyl-1H-indazol-7-yl)-5-(pyrimidin-2-yl)-4-(trifluoromethyl)benzamide] reads 4.3 nM.
`NC(=O)Cc1cnc2c(NC(=O)c3cc(-c4ncccn4)c(C(F)(F)F)cc3F)c(-c3ccccc3)ccn12` [Compound 50, N-(3-(2-Amino-2-oxoethyl)-7-phenylimidazo[1,2-a]pyridin-8-yl)-2-fluoro-5-(pyrimidin-2-yl)-4-(trifluoromethyl)benzamide] returned an IC50 of 28 nM.
Take `O=C(Nc1c(-c2ccc(F)cc2)ccn2c(CO)cnc12)c1cc(-c2ncccn2)c(C(F)(F)F)cc1F` [Compound 51, 2-Fluoro-N-(7-(4-fluorophenyl)-3-(hydroxymethyl)imidazo[1,2-a]pyridin-8-yl)-5-(pyrimidin-2-yl)-4-(trifluoromethyl)benzamide]: half-maximal inhibition (IC50) was put at 60 nM.
In turn, `CC(C)(O)c1cnc2c(NC(=O)c3cc(-c4ncccn4)c(C(F)(F)F)cc3F)c(-c3ccc(F)cc3)ccn12` [Compound 54, 2-fluoro-N-[7-(4-fluorophenyl)-3-(1-hydroxy-1-methylethyl)imidazo[1,2-a]pyridin-8-yl]-5-pyrimidin-2-yl-4-(trifluoromethyl)benzamide] displayed an IC50 of 58 nM.
As for `Cc1ccccc1-c1ccn2c(C(C)(C)O)cnc2c1NC(=O)c1cc(-c2ncccn2)c(C(F)(F)F)cc1F` [Compound 55, 2-Fluoro-N-(3-(2-hydroxypropan-2-yl)-7-(o-tolyl)imidazo[1,2-a]pyridin-8-yl)-5-(pyrimidin-2-yl)-4-(trifluoromethyl)benzamide], the IC50 amounted to 82 nM.
`Cc1ccccc1-c1ccn2c(C(N)=O)cnc2c1NC(=O)c1cc(-c2ccn(C)n2)c(C(F)(F)F)cc1F` [Compound 56, 8-(2-Fluoro-5-(1-methyl-1H-pyrazol-3-yl)-4-(trifluoromethyl)benzamido)-7-(o-tolyl)imidazo[1,2-a]pyridine-3-carboxamide] registered a 50% inhibitory concentration (IC50) of 29 nM.
On to `CC(C)(O)c1cnc2c(NC(=O)c3cc(-c4ncccn4)c(C(F)(F)F)cc3F)c(-c3cccc(CO)c3)ccn12` [Compound 57, 2-Fluoro-N-(7-(3-(hydroxymethyl)phenyl)-3-(2-hydroxypropan-2-yl)imidazo[1,2-a]pyridin-8-yl)-5-(pyrimidin-2-yl)-4-(trifluoromethyl)benzamide], for which the IC50 was 201 nM.
`O=C(Nc1c(-c2cccc(CO)c2)ccn2ccnc12)c1cc(-c2ncccn2)c(C(F)(F)F)cc1F` [Compound 58, 2-Fluoro-N-(7-(3-(hydroxymethyl)phenyl)imidazo[1,2-a]pyridin-8-yl)-5-(pyrimidin-2-yl)-4-(trifluoromethyl)benzamide] gave an IC50 of 232 nM.
In turn, `CC(C)(O)c1ncn2c(NC(=O)c3cc(-c4ncccn4)c(C(F)(F)F)cc3F)c(-c3ccccc3)ccc12` [Compound 59] displayed an IC50 of 25 nM.
In turn, `Cn1ccc(-c2cc(C(=O)Nc3cn4c(CO)ncc4nc3-c3ccccc3)c(F)cc2C(F)(F)F)n1` [Compound 61, 2-Fluoro-N-(6-(hydroxymethyl)-2-phenylimidazo[1,5-a]pyrimidin-3-yl)-5-(1-methyl-1H-pyrazol-3-yl)-4-(trifluoromethyl)benzamide] displayed an IC50 of 4 nM.
On to `Cc1ncc2nc(-c3ccccc3)c(NC(=O)c3ccc(C(F)(F)F)c(-c4ccn(C)n4)c3)cn12` [Compound 62, 3-(1-Methyl-1H-pyrazol-3-yl)-N-(6-methyl-2-phenylimidazo[1,5-a]pyrimidin-3-yl)-4-(trifluoromethyl)benzamide], for which the IC50 turned out to be 47 nM. Against the preceding compound, the IC50 is about 12-fold higher.
In the case of `Cn1ccc(-c2cc(C(=O)Nc3cn4c(C(=O)O)ncc4nc3-c3ccccc3)c(F)cc2C(F)(F)F)n1` [Compound 63, 3-(2-Fluoro-5-(1-methyl-1H-pyrazol-3-yl)-4-(trifluoromethyl)benzamido)-2-phenylimidazo[1,5-a]pyrimidine-6-carboxylic acid], the IC50 is 32 nM. This IC50 and that of the compound before are within 1.5-fold of each other.
Regarding `Cn1ccc(-c2cc(C(=O)Nc3cn4cncc4nc3-c3ccccc3)c(F)cc2C(F)(F)F)n1` [Compound 64, 2-Fluoro-5-(1-methyl-1H-pyrazol-3-yl)-N-(2-phenylimidazo[1,5-a]pyrimidin-3-yl)-4-(trifluoromethyl)benzamide], half-maximal inhibition (IC50) required 5.5 nM. Against the preceding compound, the IC50 is about 5.8-fold lower.
